Results: patent US11566007B2, “Ras inhibitors” (Revolution Medicines, Inc., priority 2019, dated 2023)
Where two headings read alike, the source gives them in different places.

Legend:
[1] = from CCn1c(-c2cccnc2[C@H](C)OC)c(CC(C)(C)CO)c2cc(C3=CCCN(CC(NC(=O)OC(C)(C)C)C(=O)N4CCC[C@@H](C(=O)O)N4)C3)ccc21; ester bond; EDCI.HCl/HOBt/DIPEA; DCM; 7.14 mM; 30.0 °C; 16.0 h
[2] = 18-membered ring
K-Ras G12C = K-Ras G12C (Homo sapiens (Human), UniProt P01116+P62937, G12C); experiment: Ras-Raf (BRAF RBD) disruption / FRET / MOA assay, KRAS G12C; format: biochemical; details: KRAS G12C; Ras-Raf disruption/FRET/MOA assay; read-out: IC50* KRAS G12C FRET data
In short: (§1)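 TR-FRET read-out: a drop in ratio relative to DMSO wells marks disruption of the Ras:RAF complex, reported as IC50. Compounds (3-fold series, 10 points, top 30 μM final) incubated 3 h at 25° C before Eu-anti-His 10 nM and APC-anti-GST 50 nM, 1.5 h more.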

NRAS G12C = NRAS G12C (Homo sapiens (Human), UniProt P01111+P62937, G12C); experiment: Ras-Raf (BRAF RBD) disruption / FRET / MOA assay, NRAS G12C; format: biochemical; details: read-out: IC50* NRAS G12C FRET data
In short: as §1

KRAS G12D = KRAS G12D (Homo sapiens (Human), UniProt P01116+P62937, G12D); experiment: Ras-Raf (BRAF RBD) disruption / FRET / MOA assay, KRAS G12D; format: biochemical; details: Ras-Raf disruption/FRET/MOA assay; class symbols; read-out: KRAS G12D FRET data IC50
In short: as §1

KRAS WT = KRAS WT (Homo sapiens (Human), UniProt P01116+P62937); experiment: Ras-Raf (BRAF RBD) disruption / FRET / MOA assay, KRAS WT; format: biochemical; details: read-out: IC50* KRAS WT FRET data
In short: as §1

NRAS Q61R = NRAS Q61R (Homo sapiens (Human), UniProt P01111+P62937, Q61R); experiment: Ras-Raf (BRAF RBD) disruption / FRET / MOA assay, NRAS Q61R; format: biochemical; details: NRAS Q61R; Ras-Raf disruption/FRET/MOA assay; read-out: IC50* NRAS Q61R FRET data
In short: (§2)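 Compounds were tested as a 10-point 3-fold dilution series from 30 μM final for their ability to drive ternary complex formation between nucleotide-loaded Ras and cyclophilin A, displacing the BRAF RBD. After 3 h at 25° C., anti-His Eu-W1024 (10 nM) and anti-GST allophycocyanin (50 nM) were added for 1.5 h. A TR-FRET ratio decrease versus DMSO gave IC50.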

K-Ras G13C = K-Ras G13C (Homo sapiens (Human), UniProt P01116+P62937, G13C); experiment: Ras-Raf (BRAF RBD) disruption / FRET / MOA assay, KRAS G13C; format: biochemical; details: KRAS G13C; Ras-Raf disruption/FRET/MOA assay; read-out: IC50* KRAS G13C FRET data
In short: as §1

NCI-H358 (K-Ras G12C) = experiment: CellTiter-Glo cell viability assay, NCI-H358; format: cell-based, human; details: Homo sapiens, NCI-H358, 120 h, NCI-H358, 5-day treatment; class symbols; read-out: Additional H358 Cell Viability assay data (K-Ras G12C, IC50)
In short: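 Cells seeded, compound added directly, 5-day exposure. Plates to RT ~30 min, CellTiter-Glo luminescence read. Normalized to DMSO avg (x100); 4-parameter logistic fit.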

KRAS G13D = KRAS G13D (Homo sapiens (Human), UniProt P01116+P62937, G13D); experiment: Ras-Raf (BRAF RBD) disruption / FRET / MOA assay, KRAS G13D; format: biochemical; details: read-out: IC50* KRAS G13D FRET data
In short: as §1

NRAS Q61K = NRAS Q61K (Homo sapiens (Human), UniProt P01111+P62937, Q61K); experiment: Ras-Raf (BRAF RBD) disruption / FRET / MOA assay, NRAS Q61K; format: biochemical; details: NRAS Q61K; Ras-Raf disruption/FRET/MOA assay; read-out: IC50* NRAS Q61K FRET data
In short: as §2

KRAS G12S = KRAS G12S (Homo sapiens (Human), UniProt P01116+P62937, G12S); experiment: Ras-Raf (BRAF RBD) disruption / FRET / MOA assay, KRAS G12S; format: biochemical; details: Ras-Raf disruption/FRET/MOA assay; class symbols; read-out: KRAS G12S FRET data IC50
In short: as §1

KRAS Q61H = KRAS Q61H (Homo sapiens (Human), UniProt P01116+P62937, Q61H); experiment: Ras-Raf (BRAF RBD) disruption / FRET / MOA assay, KRAS Q61H; format: biochemical; details: Ras-Raf disruption/FRET/MOA assay; class symbols; read-out: KRAS Q61H FRET data IC50
In short: as §2

KRAS G12V = KRAS G12V (Homo sapiens (Human), UniProt P01116+P62937, G12V); experiment: Ras-Raf (BRAF RBD) disruption / FRET / MOA assay, KRAS G12V; format: biochemical; details: read-out: IC50* KRAS G12V FRET data
In short: as §1

NRAS WT = NRAS WT (Homo sapiens (Human), UniProt P01111+P62937); experiment: Ras-Raf (BRAF RBD) disruption / FRET / MOA assay, NRAS WT; format: biochemical; details: read-out: IC50* NRAS WT FRET data
In short: as §2

Chain of KRAS G12D (P01116-2 other isoform, or with tags, fused parts or gaps G12D): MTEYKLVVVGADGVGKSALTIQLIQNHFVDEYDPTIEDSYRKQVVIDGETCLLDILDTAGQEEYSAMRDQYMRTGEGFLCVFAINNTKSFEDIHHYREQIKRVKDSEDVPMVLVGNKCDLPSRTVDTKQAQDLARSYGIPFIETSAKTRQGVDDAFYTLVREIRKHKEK
Chain of KRAS G12D (P62937 whole entry): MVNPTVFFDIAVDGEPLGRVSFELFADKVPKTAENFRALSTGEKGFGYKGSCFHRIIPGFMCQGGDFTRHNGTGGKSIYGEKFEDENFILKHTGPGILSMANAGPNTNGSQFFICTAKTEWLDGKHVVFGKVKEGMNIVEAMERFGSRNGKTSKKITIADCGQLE
Chain of NRAS G12C (P01111 whole entry G12C): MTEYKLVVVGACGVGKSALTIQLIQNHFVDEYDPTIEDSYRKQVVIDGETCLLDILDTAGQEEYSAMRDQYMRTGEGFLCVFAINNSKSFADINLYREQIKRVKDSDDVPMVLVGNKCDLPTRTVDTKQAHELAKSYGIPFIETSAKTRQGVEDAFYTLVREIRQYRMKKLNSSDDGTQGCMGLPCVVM
Chain of NRAS G12C (P62937 whole entry): as the sequence (P62937 whole entry) above
Chain of NRAS Q61K (P01111 whole entry Q61K): as the sequence (P01111 whole entry G12C) above, with C12G, Q61K counted along it
Chain of NRAS Q61K (P62937 whole entry): as the sequence (P62937 whole entry) above
Chain of KRAS Q61H (P01116-2 other isoform, or with tags, fused parts or gaps Q61H): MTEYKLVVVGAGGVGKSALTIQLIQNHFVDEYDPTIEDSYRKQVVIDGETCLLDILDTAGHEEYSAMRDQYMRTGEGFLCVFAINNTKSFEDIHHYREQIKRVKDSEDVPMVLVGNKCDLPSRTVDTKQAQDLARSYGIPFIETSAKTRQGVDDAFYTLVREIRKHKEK
Chain of KRAS Q61H (P62937 whole entry): as the sequence (P62937 whole entry) above
Chain of KRAS WT (P01116-2 other isoform, or with tags, fused parts or gaps): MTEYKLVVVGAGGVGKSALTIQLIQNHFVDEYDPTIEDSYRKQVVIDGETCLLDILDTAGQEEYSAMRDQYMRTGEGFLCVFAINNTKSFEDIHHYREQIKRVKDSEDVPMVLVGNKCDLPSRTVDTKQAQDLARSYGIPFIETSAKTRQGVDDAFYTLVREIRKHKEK
Chain of KRAS WT (P62937 whole entry): as the sequence (P62937 whole entry) above
Chain of NRAS WT (P01111 whole entry): as the sequence (P01111 whole entry G12C) above, with C12G counted along it
Chain of NRAS WT (P62937 whole entry): as the sequence (P62937 whole entry) above
Chain of K-Ras G12C (P01116-2 other isoform, or with tags, fused parts or gaps G12C): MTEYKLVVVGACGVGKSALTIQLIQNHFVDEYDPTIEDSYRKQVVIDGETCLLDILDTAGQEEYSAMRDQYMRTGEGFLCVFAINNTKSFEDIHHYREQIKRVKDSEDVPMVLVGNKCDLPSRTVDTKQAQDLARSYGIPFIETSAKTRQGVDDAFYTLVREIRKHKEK
Chain of K-Ras G12C (P62937 whole entry): as the sequence (P62937 whole entry) above
Chain of KRAS G12V (P01116-2 other isoform, or with tags, fused parts or gaps G12V): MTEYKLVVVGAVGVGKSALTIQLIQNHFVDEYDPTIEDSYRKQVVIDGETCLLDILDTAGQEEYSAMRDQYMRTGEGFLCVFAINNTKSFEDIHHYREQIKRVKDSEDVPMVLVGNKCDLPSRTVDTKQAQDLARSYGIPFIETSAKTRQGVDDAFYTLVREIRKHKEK
Chain of KRAS G12V (P62937 whole entry): as the sequence (P62937 whole entry) above
Chain of K-Ras G13C (P01116-2 other isoform, or with tags, fused parts or gaps G13C): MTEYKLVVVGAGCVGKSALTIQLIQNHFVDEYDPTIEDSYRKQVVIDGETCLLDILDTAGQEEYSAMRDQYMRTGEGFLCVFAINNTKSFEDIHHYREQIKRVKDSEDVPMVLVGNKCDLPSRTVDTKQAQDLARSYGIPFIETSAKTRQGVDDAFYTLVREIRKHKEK
Chain of K-Ras G13C (P62937 whole entry): as the sequence (P62937 whole entry) above
Chain of NRAS Q61R (P01111 whole entry Q61R): as the sequence (P01111 whole entry G12C) above, with C12G, Q61R counted along it
Chain of NRAS Q61R (P62937 whole entry): as the sequence (P62937 whole entry) above
Chain of KRAS G12S (P01116-2 other isoform, or with tags, fused parts or gaps G12S): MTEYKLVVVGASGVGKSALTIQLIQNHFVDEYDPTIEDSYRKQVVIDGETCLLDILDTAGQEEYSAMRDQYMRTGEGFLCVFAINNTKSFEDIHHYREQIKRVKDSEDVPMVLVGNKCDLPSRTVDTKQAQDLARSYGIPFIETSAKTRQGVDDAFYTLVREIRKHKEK
Chain of KRAS G12S (P62937 whole entry): as the sequence (P62937 whole entry) above
Chain of KRAS G13D (P01116-2 other isoform, or with tags, fused parts or gaps G13D): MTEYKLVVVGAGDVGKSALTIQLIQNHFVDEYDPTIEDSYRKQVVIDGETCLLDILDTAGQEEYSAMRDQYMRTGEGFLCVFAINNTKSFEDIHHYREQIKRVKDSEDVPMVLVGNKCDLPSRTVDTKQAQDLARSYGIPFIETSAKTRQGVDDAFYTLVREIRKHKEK
Chain of KRAS G13D (P62937 whole entry): as the sequence (P62937 whole entry) above

Row | Compound | IC50 (K-Ras G12C) | IC50 (NRAS G12C) | IC50 (KRAS G12D) | IC50 (KRAS WT) | IC50 (NRAS Q61R) | IC50 (K-Ras G13C) | IC50 (NCI-H358 (K-Ras G12C)) | IC50 (KRAS G13D) | IC50 (NRAS Q61K) | IC50 (KRAS G12S) | IC50 (KRAS Q61H) | IC50 (KRAS G12V) | IC50 (NRAS WT) | also measured
1 | CCn1c(-c2cccnc2[C@H](C)OC)c2c3cc(ccc31)C1=CCCN(C1)CC(NC(=O)OC(C)(C)C)C(=O)N1CCC[C@H](N1)C(=O)OCC(C)(C)C2 (some centres unmarked) | – | – | – | – | – | – | – | – | – | – | – | – | – | ring closure, yield of all isomers [1]: 40%
2 | CCn1c(-c2cccnc2[C@H](C)OC)c2c3cc(ccc31)N1CCO[C@@H](C[C@H](NC(=O)OCc3ccccc3)C(=O)N3CCC[C@H](N3)C(=O)OCC(C)(C)C2)C1 | – | – | – | – | – | – | – | – | – | – | – | – | – | ring closure, isolated yield ([2]; from CCn1c(-c2cccnc2[C@H](C)OC)c(CC(C)(C)CO)c2cc(N3CCO[C@@H](C[C@H](NC(=O)OCc4ccccc4)C(=O)N4CCC[C@@H](C(=O)O)N4)C3)ccc21, ester bond, EDCI/HOBt/DIPEA, DCM, 12.75 mM, 25.0 °C): 66%
3 | CO[C@@H](C)c1ncc(N2CCN(C(=O)OCc3ccccc3)CC2)cc1-c1c2c3cc(ccc3n1CC(F)(F)F)-c1cccc(c1)C[C@H](NC(=O)OC(C)(C)C)C(=O)N1CCC[C@H](N1)C(=O)OCC(C)(C)C2 | – | – | – | – | – | – | – | – | – | – | – | – | – | ring closure, isolated yield ([2]; from CO[C@@H](C)c1ncc(N2CCN(C(=O)OCc3ccccc3)CC2)cc1-c1c(CC(C)(C)CO)c2cc(-c3cccc(C[C@H](NC(=O)OC(C)(C)C)C(=O)N4CCC[C@@H](C(=O)O)N4)c3)ccc2n1CC(F)(F)F, ester bond, EDCI/HOBt/DIPEA, DCM, 9.9 mM): 67.9%
4 | CO[C@@H](C)c1ncccc1-c1c2c3cc(ccc3n1CC(F)(F)F)N1CCO[C@@H](C[C@H](NC(=O)OCc3ccccc3)C(=O)N3CCC[C@H](N3)C(=O)OCC(C)(C)C2)C1 | – | – | – | – | – | – | – | – | – | – | – | – | – | ring closure, isolated yield ([2]; from CO[C@@H](C)c1ncccc1-c1c(CC(C)(C)CO)c2cc(N3CCO[C@@H](C[C@H](NC(=O)OCc4ccccc4)C(=O)N4CCC[C@@H](C(=O)O)N4)C3)ccc2n1CC(F)(F)F, ester bond, EDCI/HOBt/DIPEA, DCM, 11.25 mM): 74%
5 | C=CC(=O)N1CC[C@H](C(=O)N(C)[C@H](C(=O)N[C@H]2Cc3cccc(c3)-c3ccc4c(c3)c(c(-c3cnn(C)c3CN(C)C)n4CC)CC(C)(C)COC(=O)[C@@H]3CCCN(N3)C2=O)C(C)C)C1 (relative stereo) [Example A329] | > 10 µM | > 10 µM | > 10 µM | > 10 µM | > 10 µM | > 10 µM | 0.1 to 1 µM | > 10 µM | > 10 µM | > 10 µM | > 10 µM | > 10 µM | > 10 µM | –
6 | C=CC(=O)N1CC[C@H](C(=O)N(C)[C@H](C(=O)N[C@H]2Cc3cc(O)cc(c3)-c3cc4c(c(-c5ccccc5CCOC)n(CC)c4cn3)CC(C)(C)COC(=O)[C@@H]3CCCN(N3)C2=O)C(C)C)C1 [Example A102] | 1 to 10 µM | 1 to 10 µM | > 10 µM | > 10 µM | > 10 µM | > 10 µM | > 1 µM | > 10 µM | > 10 µM | > 10 µM | 1 to 10 µM | > 10 µM | > 10 µM | –
7 | C=CC(=O)N1CC[C@H](C(=O)N(C)[C@H](C(=O)N[C@H]2Cc3cc(O)cc(c3)-c3ccc4nc(-c5cccnc5[C@H](C)OC)n(c4c3)CC(C)(C)COC(=O)[C@@H]3CCCN(N3)C2=O)C(C)C)C1 [Example A242] | 1 to 10 µM | 1 to 10 µM | > 10 µM | > 10 µM | > 10 µM | 1 to 10 µM | > 1 µM | > 10 µM | > 10 µM | > 10 µM | 1 to 10 µM | 1 to 10 µM | > 10 µM | –
8 | C=CC(=O)N1CC[C@H](C(=O)N(C)[C@H](C(=O)N[C@H]2Cc3cc(O)cc(c3)-c3ccc4nc(-c5cccnc5COC)c(n4c3)CC(C)(C)COC(=O)[C@@H]3CCCN(N3)C2=O)C(C)C)C1 [Example A243] | > 10 µM | > 10 µM | > 10 µM | > 10 µM | > 10 µM | > 10 µM | > 1 µM | > 10 µM | > 10 µM | > 10 µM | > 10 µM | > 10 µM | > 10 µM | –
9 | C=CC(=O)N1CC[C@H](C(=O)N(C)[C@H](C(=O)NC2C[C@@H]3CN(CCO3)c3ccc4c(c3)c(c(-c3cccnc3[C@H](C)OC)n4CC)CC(C)(C)COC(=O)[C@@H]3CC(Br)CN(N3)C2=O)C(C)C)C1 (some centres unmarked) [Example A313] | 1 to 10 µM | 1 to 10 µM | > 10 µM | > 10 µM | > 10 µM | > 10 µM | > 1 µM | > 10 µM | > 10 µM | > 10 µM | > 10 µM | > 10 µM | > 10 µM | –
10 | C=CC(=O)N1CC[C@H](C(=O)N(C)[C@H](C(=O)N[C@H]2Cc3cccc(c3)-c3ccc4c(c3)c(c(-c3cnn(C5CCN(C)CC5)c3[C@H](C)OC)n4CC)CC(C)(C)COC(=O)[C@@H]3CCCN(N3)C2=O)C(C)C)C1 [Example A482] | > 10 µM | > 10 µM | > 10 µM | > 10 µM | > 10 µM | > 10 µM | 0.1 to 1 µM | > 10 µM | > 10 µM | > 10 µM | > 10 µM | > 10 µM | > 10 µM | –
11 | tert-butyl ((6^3S,4S)-1^1-ethyl-1^2-(2-((S)-1-methoxyethyl)pyridin-3-yl)-10,10-dimethyl-5,7-dioxo-6^1,6^2,6^3,6^4,6^5,6^6-hexahydro-1^1H-8-oxa-2(5,2)-oxazola-1(5,3)-indola-6(1,3)-pyridazinacycloundecaphane-4-yl)carbamate | – | – | – | – | – | – | – | – | – | – | – | – | – | ring closure, isolated yield ([2]; ester bond, EDCI/HOBt/DIPEA, DCM, 13.7 mM, 0.0 °C): 56.4%
12 | tert-butyl ((6^3S,4S)-1^1-ethyl-1^2-(2-(methoxymethyl)phenyl)-10,10-dimethyl-2^5-nitro-5,7-dioxo-6^1,6^2,6^3,6^4,6^5,6^6-hexahydro-1^1H-8-oxa-1(5,3)-indola-6(1,3)-pyridazina-2(1,3)-benzenacycloundecaphane-4-yl)carbamate | – | – | – | – | – | – | – | – | – | – | – | – | – | ring closure, isolated yield ([2]; ester bond, EDCI/HOBt/DIPEA, DCM, 6.4 mM): 73%
13 | tert-butyl ((6^3S,4S)-2^5-(difluoromethyl)-1^1-ethyl-1^2-(2-((S)-1-methoxyethyl)pyridin-3-yl)-10,10-dimethyl-5,7-dioxo-6^1,6^2,6^3,6^4,6^5,6^6-hexahydro-1^1H-8-oxa-1(5,3)-indola-6(1,3)-pyridazina-2(1,3)-benzenacycloundecaphane-4-yl)carbamate | – | – | – | – | – | – | – | – | – | – | – | – | – | ring closure, isolated yield ([2]; ester bond, EDCI/HOBt/DIPEA, DCM): 51%
14 | tert-butyl ((6^3S,4S,Z)-1^1-ethyl-1^2-(2-((S)-1-methoxyethyl)pyridin-3-yl)-2^1,10,10-trimethyl-5,7-d ioxo-6^1,6^2,6^3,6^4,6^5,6^6-hexahydro-1^1H,2^1H-8-oxa-1(5,3)-indola-6(1,3)-pyridazina-2(5,3)-triazolacycloundecaphane-4-yl)carbamate | – | – | – | – | – | – | – | – | – | – | – | – | – | ring closure, isolated yield ([2]; cc_pd bond, XPhos Pd G3/XPhos/K3PO4, dioxane/H2O 5:1, 71.7 mM, 75.0 °C): 56.8%
